Patent publication US10071086B2, “1H-pyrazolo[3,4-b]pyridines and therapeutic uses thereof” (Samumed, LLC, priority 2012, dated 2018)

These compounds were tested on Wnt pathway (assay: Wnt activity reporter assay (SP5 promoter-luciferase in SW480 cells)). Conditions: Homo sapiens, SP5 promoter firefly luciferase reporter, read-out: Wnt inhibition.
Type: cell-based
Excerpt: The above synthesized compounds were screened using the assay procedure for Wnt activity described below.
Reporter cell lines can be generated by stably transducing cells of cancer cell lines (e.g., colon cancer) with a lentiviral construct that include a wnt-responsive promoter driving expression of the firefly luciferase gene.
Lentiviral constructs can be made in which the SP5 promoter, a promoter having eight TCF/LEF binding sites derived from the SP5 promoter, is linked upstream of the firefly luciferase gene. The lentiviral constructs can also include a hygromycin resistance gene as a selectable marker. The SP5 promoter construct can be used to transduce SW480 cells, a colon cancer cell line having a mutated APC gene that generates a truncated APC protein, leading to de-regulated accumulation of β-catenin.
Cultured SW480 cells bearing a reporter construct can be distributed at approximately 10,000 cells per well into 96 well or 384 well plates. Compounds from a small molecule compound library can then be added to the wells in half-log dilutions using a ten micromolar top concentration. A series of control wells for each cell type receive only buffer and compound solvent. Twenty-four to forty hours after the addition of compound, reporter activity for luciferase can be assayed, for example, by addition of the BrightGlo luminescence reagent (Promega) and the Victor3 plate reader (Perkin Elmer). Readings can be normalized to DMSO only treated cells, and normalized activities can then be used in the IC50 calculations.

Structure (SMILES) | IC50
CN(C)Cc1cncc(-c2cnc3[nH]nc(-c4nc5c(-c6cccc(F)c6)cccc5[nH]4)c3c2)c1 [Compound 552, 1-(5-(3-(4-(3-Fluorophenyl)-1H-benzo[d]imidazol-2-yl)-1H-pyrazolo[3,4-b]pyridin-5-yl)pyridin-3-yl)-N,N-dimethylmethanamine] | 22 nM
Fc1cccc(-c2cccc3[nH]c(-c4n[nH]c5ncc(-c6cncc(CN7CCCCC7)c6)cc45)nc23)c1 [Compound 554, 3-(4-(3-Fluorophenyl)-1H-benzo[d]imidazol-2-yl)-5-(5-(piperidin-1-ylmethyl)pyridin-3-yl)-1H-pyrazolo[3,4-b]pyridine] | 200 nM
CCCCC(=O)Nc1cncc(-c2cnc3[nH]nc(-c4nc5c(-c6cccc(F)c6)cccc5[nH]4)c3c2)c1 [Compound 557, N-(5-(3-(4-(3-Fluorophenyl)-1H-benzo[d]imidazol-2-yl)-1H-pyrazolo[3,4-b]pyridin-5-yl)pyridin-3-yl)pentanamide] | 53 nM
O=C(Nc1cncc(-c2cnc3[nH]nc(-c4nc5c(-c6cccc(F)c6)cccc5[nH]4)c3c2)c1)C1CCCC1 [Compound 560, N-(5-(3-(4-(3-Fluorophenyl)-1H-benzo[d]imidazol-2-yl)-1H-pyrazolo[3,4-b]pyridin-5-yl)pyridin-3-yl)cyclopentanecarboxamide] | 90 nM
O=C(Nc1cncc(-c2cnc3[nH]nc(-c4nc5c(-c6cccc(F)c6)cccc5[nH]4)c3c2)c1)C1CCCCC1 [Compound 561, N-(5-(3-(4-(3-Fluorophenyl)-1H-benzo[d]imidazol-2-yl)-1H-pyrazolo[3,4-b]pyridin-5-yl)pyridin-3-yl)cyclohexanecarboxamide] | 143 nM
O=C(Nc1cncc(-c2cnc3[nH]nc(-c4nc5c(-c6ccc(F)cc6)cccc5[nH]4)c3c2)c1)c1ccccc1 [Compound 573, N-(5-(3-(4-(4-Fluorophenyl)-1H-benzo[d]imidazol-2-yl)-1H-pyrazolo[3,4-b]pyridin-5-yl)pyridin-3-yl)benzamide] | 82 nM
O=C(Nc1cncc(-c2cnc3[nH]nc(-c4nc5c(-c6ccc(F)cc6)cccc5[nH]4)c3c2)c1)C1CC1 [Compound 581, N-(5-(3-(4-(4-Fluorophenyl)-1H-benzo[d]imidazol-2-yl)-1H-pyrazolo[3,4-b]pyridin-5-yl)pyridin-3-yl)cyclopropanecarboxamide] | 48 nM
Fc1ccc(-c2cccc3[nH]c(-c4n[nH]c5ncc(-c6cncc(CNCC7CCCC7)c6)cc45)nc23)cc1 [Compound 586, 1-Cyclopentyl-N-((5-(3-(4-(4-fluorophenyl)-1H-benzo[d]imidazol-2-yl)-1H-pyrazolo[3,4-b]pyridin-5-yl)pyridin-3-yl)methyl)methanamine] | 420 nM
Fc1ccccc1-c1cccc2[nH]c(-c3n[nH]c4ncc(-c5cccnc5)cc34)nc12 [Compound 590, 3-(4-(2-Fluorophenyl)-1H-benzo[d]imidazol-2-yl)-5-(pyridin-3-yl)-1H-pyrazolo[3,4-b]pyridine] | 20 nM
CC(C)(C)C(=O)Nc1cncc(-c2cnc3[nH]nc(-c4nc5c(-c6ccccc6F)cccc5[nH]4)c3c2)c1 [Compound 594, N-(5-(3-(4-(2-Fluorophenyl)-1H-benzo[d]imidazol-2-yl)-1H-pyrazolo[3,4-b]pyridin-5-yl)pyridin-3-yl)pivalamide] | 120 nM
O=C(Cc1ccccc1)Nc1cncc(-c2cnc3[nH]nc(-c4nc5c(-c6ccccc6F)cccc5[nH]4)c3c2)c1 [Compound 595, N-(5-(3-(4-(2-Fluorophenyl)-1H-benzo[d]imidazol-2-yl)-1H-pyrazolo[3,4-b]pyridin-5-yl)pyridin-3-yl)-2-phenylacetamide] | 354 nM
Fc1ccccc1-c1cccc2[nH]c(-c3n[nH]c4ncc(-c5cncc(CN6CCCC6)c5)cc34)nc12 [Compound 599, 3-(4-(2-Fluorophenyl)-1H-benzo[d]imidazol-2-yl)-5-(5-(pyrrolidin-1-ylmethyl)pyridin-3-yl)-1H-pyrazolo[3,4-b]pyridine] | 220 nM
CCCC(=O)Nc1cncc(-c2cnc3[nH]nc(-c4nc5c(-c6ccccc6F)cccc5[nH]4)c3c2)c1 [Compound 602, N-(5-(3-(4-(2-Fluorophenyl)-1H-benzo[d]imidazol-2-yl)-1H-pyrazolo[3,4-b]pyridin-5-yl)pyridin-3-yl)butyramide] | 18 nM
O=C(Nc1cncc(-c2cnc3[nH]nc(-c4nc5c(-c6ccccc6F)cccc5[nH]4)c3c2)c1)C1CCC1 [Compound 605, N-(5-(3-(4-(2-Fluorophenyl)-1H-benzo[d]imidazol-2-yl)-1H-pyrazolo[3,4-b]pyridin-5-yl)pyridin-3-yl)cyclobutanecarboxamide] | 18 nM
CN(C)c1cncc(-c2cnc3[nH]nc(-c4nc5c(-c6cccnc6)cccc5[nH]4)c3c2)c1 [Compound 616, N,N-Dimethyl-5-(3-(4-(pyridin-3-yl)-1H-benzo[d]imidazol-2-yl)-1H-pyrazolo[3,4-b]pyridin-5-yl)pyridin-3-amine] | 1410 nM
CN(C)Cc1cncc(-c2cnc3[nH]nc(-c4nc5c(-c6cccnc6)cccc5[nH]4)c3c2)c1 [Compound 621, N,N-Dimethyl-1-(5-(3-(4-(pyridin-3-yl)-1H-benzo[d]imidazol-2-yl)-1H-pyrazolo[3,4-b]pyridin-5-yl)pyridin-3-yl)methanamine] | 36 nM
Nc1cncc(-c2cnc3[nH]nc(-c4nc5c(-c6ccncc6)cccc5[nH]4)c3c2)c1 [Compound 635, 5-(3-(4-(Pyridin-4-yl)-1H-benzo[d]imidazol-2-yl)-1H-pyrazolo[3,4-b]pyridin-5-yl)pyridin-3-amine] | 34 nM
Cc1ccncc1-c1cnc2[nH]nc(-c3nc4c(-c5ccncc5)cccc4[nH]3)c2c1 [Compound 637, 5-(4-Methylpyridin-3-yl)-3-(4-(pyridin-4-yl)-1H-benzo[d]imidazol-2-yl)-1H-pyrazolo[3,4-b]pyridine] | 110 nM
CC(C)Nc1cncc(-c2cnc3[nH]nc(-c4nc5c(-c6ccncc6)cccc5[nH]4)c3c2)c1 [Compound 643, N-Isopropyl-5-(3-(4-(pyridin-4-yl)-1H-benzo[d]imidazol-2-yl)-1H-pyrazolo[3,4-b]pyridin-5-yl)pyridin-3-amine] | 30 nM
CC(C)(C)CC(=O)Nc1cncc(-c2cnc3[nH]nc(-c4nc5c(-c6ccncc6)cccc5[nH]4)c3c2)c1 [Compound 647, 3,3-Dimethyl-N-(5-(3-(4-(pyridin-4-yl)-1H-benzo[d]imidazol-2-yl)-1H-pyrazolo[3,4-b]pyridin-5-yl)pyridin-3-yl)butanamide] | 1520 nM
c1ccc(CNCc2cncc(-c3cnc4[nH]nc(-c5nc6c(-c7ccncc7)cccc6[nH]5)c4c3)c2)cc1 [Compound 654, N-Benzyl-1-(5-(3-(4-(pyridin-4-yl)-1H-benzo[d]imidazol-2-yl)-1H-pyrazolo[3,4-b]pyridin-5-yl)pyridin-3-yl)methanamine] | 1500 nM
FC1(F)CCN(Cc2cncc(-c3cnc4[nH]nc(-c5nc6c(-c7ccccn7)cccc6[nH]5)c4c3)c2)C1 [Compound 680, 5-(5-((3,3-Difluoropyrrolidin-1-yl)methyl)pyridin-3-yl)-3-(4-(pyridin-2-yl)-1H-benzo[d]imidazol-2-yl)-1H-pyrazolo[3,4-b]pyridine] | 170 nM
O=C(Nc1cncc(-c2cnc3[nH]nc(-c4nc5c(N6CCCCC6)cccc5[nH]4)c3c2)c1)c1ccccc1 [Compound 691, N-(5-(3-(4-(Piperidin-1-yl)-1H-benzo[d]imidazol-2-yl)-1H-pyrazolo[3,4-b]pyridin-5-yl)pyridin-3-yl)benzamide] | 187 nM
CCCCC(=O)Nc1cncc(-c2cnc3[nH]nc(-c4nc5c(N6CCCCC6)cccc5[nH]4)c3c2)c1 [Compound 698, N-(5-(3-(4-(Piperidin-1-yl)-1H-benzo[d]imidazol-2-yl)-1H-pyrazolo[3,4-b]pyridin-5-yl)pyridin-3-yl)pentanamide] | 300 nM
O=C(Nc1cncc(-c2cnc3[nH]nc(-c4nc5c(N6CCCCC6)cccc5[nH]4)c3c2)c1)C1CCCC1 [Compound 701, N-(5-(3-(4-(Piperidin-1-yl)-1H-benzo[d]imidazol-2-yl)-1H-pyrazolo[3,4-b]pyridin-5-yl)pyridin-3-yl)cyclopentanecarboxamide] | 625 nM
c1cc(N2CCCCC2)c2nc(-c3n[nH]c4ncc(-c5cncc(CNCC6CCCC6)c5)cc34)[nH]c2c1 [Compound 704, 1-Cyclopentyl-N-((5-(3-(4-(piperidin-1-yl)-1H-benzo[d]imidazol-2-yl)-1H-pyrazolo[3,4-b]pyridin-5-yl)pyridin-3-yl)methyl)methanamine] | 810 nM
Cc1cn(-c2cccc3[nH]c(-c4n[nH]c5ncc(-c6cncc(CN(C)C)c6)cc45)nc23)cn1 [Compound 719, N,N-Dimethyl-1-(5-(3-(4-(4-methyl-1H-imidazol-1-yl)-1H-benzo[d]imidazol-2-yl)-1H-pyrazolo[3,4-b]pyridin-5-yl)pyridin-3-yl)methanamine] | 200 nM
Cc1cn(-c2cccc3[nH]c(-c4n[nH]c5ncc(-c6cncc(NC(=O)C7CCCCC7)c6)cc45)nc23)cn1 [Compound 728, N-(5-(3-(4-(4-Methyl-1H-imidazol-1-yl)-1H-benzo[d]imidazol-2-yl)-1H-pyrazolo[3,4-b]pyridin-5-yl)pyridin-3-yl)cyclohexanecarboxamide] | 39 nM
CCNCc1cncc(-c2cnc3[nH]nc(-c4nc5c(N6CCN(C)CC6)cccc5[nH]4)c3c2)c1 [Compound 738, N-((5-(3-(4-(4-Methylpiperazin-1-yl)-1H-benzo[d]imidazol-2-yl)-1H-pyrazolo[3,4-b]pyridin-5-yl)pyridin-3-yl)methyl)ethanamine] | 550 nM
